Patent publication US10533010B2, “Substituted indole Mcl-1 inhibitors” (Vanderbilt University, priority 2014, dated 2020)
pKi: −log10 of the molar value.

molecular target: recombinant Mcl-1 (residues 172-327) (Homo sapiens (Human), UniProt Q07820); assay: Fluorescence polarization anisotropy competition assay (FITC-Bak or FITC-Bim BH3 peptide) with Mcl-1; type: binding; settings: not given
Sequence (Q07820 172-327): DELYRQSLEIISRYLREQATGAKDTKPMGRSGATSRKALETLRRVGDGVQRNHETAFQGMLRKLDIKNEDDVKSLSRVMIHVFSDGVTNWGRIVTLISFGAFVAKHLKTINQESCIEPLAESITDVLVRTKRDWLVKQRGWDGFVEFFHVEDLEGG

Row | SMILES | pKi
1 | Cc1cc(OCCCc2c(C(=O)NCc3ccc(C(=O)O)o3)[nH]c3ccccc23)cc(C)c1Cl [I-57, 5-((3-(3-(4-chloro-3,5-dimethylphenoxy)propyl)-1H-indole-2-carboxamido)methyl)furan-2-carboxylic acid] | 7.00 to 7.29

same assay, conditions: Table 2; Ki bins given in nM; FITC-Bak or FITC-Bim peptide competition; Ki converted from IC50; read-out: Ki for Inhibition of Mcl-1

Row | SMILES | Ki [nM]
2 | Cc1cc(OCCCc2c3n(c4c(-c5c(C)nn(C)c5C)c(Cl)ccc24)CCCN(Cc2ccc(C(=O)O)cn2)C3=O)cc(C)c1Cl [I-102, 6-((8-chloro-11-(3-(4-chloro-3,5-dimethylphenoxy)propyl)-1-oxo-7-(1,3,5-trimethyl-1H-pyrazol-4-yl)-4,5-dihydro-1H-[1,4]diazepino[1,2-a]indol-2(3H)-yl)methyl)nicotinic acid] | < 50
3 | Cc1cc(OCCCc2c(C(=O)NCCC(=O)NS(=O)(=O)c3ccc(Oc4ccccc4)cc3)[nH]c3ccccc23)cc(C)c1Cl [I-17, 3-(3-(4-chloro-3,5-dimethylphenoxy)propyl)-N-(3-oxo-3-((4-phenoxyphenyl)sulfonamido)propyl)-1H-indole-2-carboxamide] | 101 to 299
4 | Cc1cc(OCCCc2c3n(c4c(-c5c(C)nn(C)c5C)c(Cl)ccc24)CCN(Cc2ccc(C(=O)O)cn2)C3=O)cc(C)c1Cl [I-142, 6-((7-chloro-10-(3-(4-chloro-3,5-dimethylphenoxy)propyl)-1-oxo-6-(1,3,5-trimethyl-1H-pyrazol-4-yl)-3,4-dihydropyrazino[1,2-a]indol-2(1H)-yl)methyl)nicotinic acid] | < 50
5 | Cc1cc(OCCCc2c(C(=O)Nc3cc(Br)cc(C(=O)O)c3)[nH]c3c(-c4c(C)nn(C)c4C)c(Cl)ccc23)cc(C)c1Cl [I-217, 3-bromo-5-(6-chloro-3-(3-(4-chloro-3,5-dimethylphenoxy)propyl)-7-(1,3,5-trimethyl-1H-pyrazol-4-yl)-1H-indole-2-carboxamido)benzoic acid] | < 50
6 | Cc1cc(OCCCc2c3n(c4c(-c5c(C)nn(C)c5C)c(Cl)ccc24)CCCN(Cc2cc(C(=O)O)cc(-c4ccc(O)cc4)c2)C3=O)cc(C)c1Cl [I-306, 5-((8-chloro-1-(3-(4-chloro-3,5-dimethylphenoxy)propyl)-1-oxo-7-(1,3,5-trimethyl-1H-pyrazol-4-yl)-4,5-dihydro-1H-[1,4]diazepino[1,2-a]indol-2(3H)-yl)methyl)-4′-hydroxy-[1,1′-biphenyl]-3-carboxylic acid] | < 50
7 | Cc1cc(OCCCc2c3n(c4c(-c5c(C)nn(C)c5C)c(Cl)ccc24)CCCN(c2cc(Cn4ccnc4)cc(C(=O)O)c2)C3=O)cc(C)c1Cl [I-229, 3-((1H-imidazol-1-yl)methyl)-5-(8-chloro-11-(3-(4-chloro-3,5-dimethylphenoxy)propyl)-1-oxo-7-(1,3,5-trimethyl-1H-pyrazol-4-yl)-4,5-dihydro-1H-[1,4]diazepino[1,2-a]indol-2(3H)-yl)benzoic acid] | < 50
8 | Cc1cc(OCCCc2c3n(c4c(-c5c(C)nn(C)c5C)c(Cl)ccc24)CCCN(c2cc(CN4CCOCC4)cc(C(=O)O)c2)C3=O)cc(C)c1Cl [I-227, 3-(8-chloro-11-(3-(4-chloro-3,5-dimethylphenoxy)propyl)-1-oxo-7-(1,3,5-trimethyl-1H-pyrazol-4-yl)-4,5-dihydro-1H-[1,4]diazepino[1,2-a]indol-2(3H)-yl)-5-(morpholinomethyl)benzoic acid] | < 50
9 | Cc1cc(OCCCc2c(C(=O)N3CCc4c(C(=O)O)cccc43)[nH]c3c(-c4c(C)nn(C)c4C)cccc23)cc(C)c1Cl [I-202, 1-(3-(3-(4-chloro-3,5-dimethylphenoxy)propyl)-7-(1,3,5-trimethyl-1H-pyrazol-4-yl)-1H-indole-2-carbonyl)indoline-4-carboxylic acid] | 51 to 100
10 | Cc1cc(OCCCc2c3n(c4c(-c5c(C)nn(C)c5C)c(Cl)ccc24)C[C@@H](C)N(c2cc(C(=O)O)cc4c2ccn4C)C3=O)cc(C)c1Cl [I-159, (R)-4-(7-chloro-10-(3-(4-chloro-3,5-dimethylphenoxy)propyl)-3-methyl-1-oxo-6-(1,3,5-trimethyl-1H-pyrazol-4-yl)-3,4-dihydropyrazino[1,2-a]indol-2(1H)-yl)-1-methyl-1H-indole-6-carboxylic acid] | < 50
11 | Cc1cc(OCCCc2c3n(c4c(-c5c(C)nn(C)c5C)c(Cl)ccc24)CCNC3=O)cc(C)c1Cl [I-117, 7-chloro-10-(3-(4-chloro-3,5-dimethylphenoxy)propyl)-6-(1,3,5-trimethyl-1H-pyrazol-4-yl)-3,4-dihydropyrazino[1,2-a]indol-1(2H)-one] | < 50
12 | Cc1cc(OCCCc2c(C(=O)NCCC(=O)NS(=O)(=O)C3CC3)[nH]c3ccccc23)cc(C)c1Cl [I-13, 3-(3-(4-chloro-3,5-dimethylphenoxy)propyl)-N-(3-(cyclopropanesulfonamido)-3-oxopropyl)-1H-indole-2-carboxamide] | 301 to 500
13 | Cc1cc(OCCCc2c3n(c4c(-c5c(C)nn(C)c5C)c(Cl)ccc24)CC(C)CNC3=O)cc(C)c1Cl (stereo not shown) [I-115, 8-chloro-1-(3-(4-chloro-3,5-dimethylphenoxy)propyl)-4-methyl-7-(1,3,5-trimethyl-1H-pyrazol-4-yl)-2,3,4,5-tetrahydro-1H-[1,4]diazepino[1,2-a]indol-1-one] | < 50
14 | Cc1cc(OCCCc2c3n(c4c(-c5c(C)nn(C)c5C)c(Cl)ccc24)CCCN(c2ccc(C(=O)O)cc2F)C3=O)cc(C)c1Cl [I-95, 4-(8-chloro-11-(3-(4-chloro-3,5-dimethylphenoxy)propyl)-1-oxo-7-(1,3,5-trimethyl-1H-pyrazol-4-yl)-4,5-dihydro-1H-[1,4]diazepino[1,2-a]indol-2(3H)-yl)-3-fluorobenzoic acid] | < 50
15 | Cc1cc(OCCCc2c3n(c4c(-c5c(C)nn(C)c5C)cccc24)CCCN(Cc2cc(C(=O)O)n(C)c2)C3=O)cc(C)c1Cl [I-79, 4-((11-(3-(4-chloro-3,5-dimethylphenoxy)propyl)-1-oxo-7-(1,3,5-trimethyl-1H-pyrazol-4-yl)-4,5-dihydro-1H-[1,4]diazepino[1,2-a]indol-2(3H)-yl)methyl)-1-methyl-1H-pyrrole-2-carboxylic acid] | 51 to 100
16 | Cc1cc(OCCCc2c3n(c4c(-c5c(C)nn(C)c5C)c(Cl)ccc24)CCCN(c2cccc(OC(F)(F)F)c2)C3=O)cc(C)c1Cl [I-101, 8-chloro-11-(3-(4-chloro-3,5-dimethylphenoxy)propyl)-2-(3-(trifluoromethoxy)phenyl)-7-(1,3,5-trimethyl-1H-pyrazol-4-yl)-2,3,4,5-tetrahydro-1H-[1,4]diazepino[1,2-a]indol-1-one] | 301 to 500
17 | Cc1cc(OCCCc2c(C(=O)N(C)c3cccc(C(=O)O)c3)[nH]c3c(-c4c(C)nn(C)c4C)c(Cl)ccc23)cc(C)c1Cl [I-187, 3-(6-chloro-3-(3-(4-chloro-3,5-dimethylphenoxy)propyl)-N-methyl-7-(1,3,5-trimethyl-1H-pyrazol-4-yl)-1H-indole-2-carboxamido)benzoic acid] | < 50

Results, then the molecule that gave them:

Row | Ki [nM] | SMILES
18 | < 50 | Cc1cc(OCCCc2c3n(c4c(-c5c(C)nn(C)c5C)c(Cl)ccc24)CCCN(c2cccc4c2ccn4CC(=O)O)C3=O)cc(C)c1Cl [I-348, 2-(4-(8-chloro-11-(3-(4-chloro-3,5-dimethylphenoxy)propyl)-1-oxo-7-(1,3,5-trimethyl-1H-pyrazol-4-yl)-4,5-dihydro-1H-[1,4]diazepino[1,2-a]indol-2(3H)-yl)-1H-indol-1-yl)acetic acid]
19 | < 50 | Cc1cc(OCCCc2c3n(c4c(-c5c(C)nn(C)c5C)c(Cl)ccc24)CCCN(Cc2cc(C(=O)O)c(C)o2)C3=O)cc(C)c1Cl [I-347, 5-((8-chloro-1-(3-(4-chloro-3,5-dimethylphenoxy)propyl)-1-oxo-7-(1,3,5-trimethyl-1H-pyrazol-4-yl)-4,5-dihydro-1H-[1,4]diazepino[1,2-a]indol-2(3H)-yl)methyl)-2-methylfuran-3-carboxylic acid]
20 | < 50 | Cc1cc(OCCCc2c(C(=O)N3CCN(c4ccc(C(=O)O)cn4)CC3)[nH]c3c(-c4c(C)nn(C)c4C)c(Cl)ccc23)cc(C)c1Cl [I-344, 6-(4-(6-chloro-3-(3-(4-chloro-3,5-dimethylphenoxy)propyl)-7-(1,3,5-trimethyl-1H-pyrazol-4-yl)-1H-indole-2-carbonyl)piperazin-1-yl)nicotinic acid]
21 | < 50 | Cc1cc(OCCCc2c3n(c4c(-c5c(C)nn(C)c5C)c(Cl)ccc24)CCCN(Cc2cc(Br)cc(C(=O)O)c2)C3=O)cc(C)c1Cl [I-299, 3-bromo-5-((8-chloro-11-(3-(4-chloro-3,5-dimethylphenoxy)propyl)-1-oxo-7-(1,3,5-trimethyl-1H-pyrazol-4-yl)-4,5-dihydro-1H-[1,4]diazepino[1,2-a]indol-2(3H)-yl)methyl)benzoic acid]
22 | < 50 | Cc1cc(OCCCc2c3n(c4c(-c5c(C)nn(C)c5C)c(Cl)ccc24)CCCN(c2cc(C(=O)O)cc4[nH]ccc24)C3=O)cc(C)c1Cl [I-252, 4-(8-chloro-11-(3-(4-chloro-3,5-dimethylphenoxy)propyl)-1-oxo-7-(1,3,5-trimethyl-1H-pyrazol-4-yl)-4,5-dihydro-1H-[1,4]diazepino[1,2-a]indol-2(3H)-yl)-1H-indole-6-carboxylic acid]
23 | < 50 | Cc1cc(OCCCc2c(C(=O)NC3CCN(C(=O)C(=O)O)CC3)[nH]c3c(-c4c(C)nn(C)c4C)c(Cl)ccc23)cc(C)c1Cl [I-321, 2-(4-(6-chloro-3-(3-(4-chloro-3,5-dimethylphenoxy)propyl)-7-(1,3,5-trimethyl-1H-pyrazol-4-yl)-1H-indole-2-carboxamido)piperidin-1-yl)-2-oxoacetic acid]
24 | < 50 | Cc1cc(OCCCc2c(C(=O)N3CCN(c4ccc(C(=O)O)cc4)CC3)n(C)c3c(-c4c(C)nn(C)c4C)c(Cl)ccc23)cc(C)c1Cl [I-339, 4-(4-(6-chloro-3-(3-(4-chloro-3,5-dimethylphenoxy)propyl)-1-methyl-7-(1,3,5-trimethyl-1H-pyrazol-4-yl)-1H-indole-2-carbonyl)piperazin-1-yl)benzoic acid]
25 | < 50 | Cc1cc(OCCCc2c3n(c4c(-c5c(C)nn(C)c5C)c(Cl)ccc24)CCCN(c2ccc(-c4nn[nH]n4)cc2)C3=O)cc(C)c1Cl [I-357, 2-(4-(2H-tetrazol-5-yl)phenyl)-8-chloro-1-(3-(4-chloro-3,5-dimethylphenoxy)propyl)-7-(1,3,5-trimethyl-1H-pyrazol-4-yl)-2,3,4,5-tetrahydro-1H-[1,4]diazepino[1,2-a]indol-1-one]
